Measurements reported in US20220370534A1, “EXTERNAL COMPOSITION FOR SKIN HAVING ITCHING RELIEVING EFFECT” (YANGSHENGTANG (ANJI) COSMETICS CO., LTD., priority 2019, published 2022).

Test system: mast cells
Experiment: Release of interleukin-4 (IL-4) from mast cells stimulated with Compound 48/80
Type: cell-based
Settings: sample 4 h, then Compound 48/80 20 mg/L 2 h, 8 duplicate wells, model group 67.6 ± 9.9, control group 34.4 ± 7.9
Method: According to the following test method, the effects of the […] samples A-E as prepared above on the release of IL-4 from mast cells were tested.
Experimental principle: The specific antigen is crosslinked with the IgE antibody bound to the cell membrane, resulting in cell activation and rapid secretion of inflammatory mediators related to granulation (histamine, IL-4, IL-13, etc.). […] In this study, Compound 48/80 was used to stimulate mast cells to degranulate and release the inflammatory mediator IL-4 to investigate the protective efficacy of the test samples on the allergic reaction of mast cells.
Experimental materials: Mast cells were provided by the Animal Center of Zhejiang Academy of Medical Sciences. […]
Experimental method: Each of samples was prepared using RPMI1640 medium, and each of samples was provided with 8 duplicate wells. Mast cells were inoculated into a 96-well culture plate at a density of 5×10^6/mL, 90 μL per well, and added with 10 μL/well of a corresponding sample; cultured in a 5% CO2 incubator at 37° C., and taken out after 4 h; in addition to the control group, the other groups were added with a stimulus 48/80 (final concentration 20 mg/L), and continued to incubate in an incubator at 37° C. for 2 h, and then centrifuged at 1500 rpm for 5 mins to get the supernatant, and the content of IL-4 in the supernatant was detected by Elisa (interleukin-4) kit.

O=C(O)c1cc(=O)c2c(OCC(O)COc3cccc4oc(C(=O)O)cc(=O)c34)cccc2o1 [Positive drug, sodium cromoglycate]
Release % (IL-4 release from cell models): 44.2 ± 12.3%
